Test results from patent publication US7297693B2, “Nitrogen-containing heterocyclic compounds and their use as Raf inhibitors” (SmithKline Beecham P.L.C., priority 2001, dated 2007).

Experiments:
[1] = molecular target: B-Raf (Homo sapiens, UniProt P15056); assay: Fluorescence anisotropy kinase binding assay (Assay 1)
Text: Fluorescence Anisotropy Kinase Binding Assay
The concentration of kinase enzyme should preferably be ≧1×Kf. The concentration of fluorescent ligand required will depend on the instrumentation used, and the fluorescent and physicochemical properties. The concentration used must be lower than the concentration of kinase enzyme, and preferably less than half the kinase enzyme concentration. A typical protocol is:
All compounds are serially diluted in DMSO, then by a one step dilution into buffer of comparison, 50 mM HEPES, […] pH7.5, 1 mM CHAPS, 10 mM MgCL2, for the assay.
B-Raf Enzyme concentration: 1 nM
Fluorescent ligand concentration: 0.5 nM
Test compound concentration: 0.5 nM-100 uM
Components incubated in 10 ul final volume in LJL HE 384 type B black microtitre plate until equilibrium reached (Over 3 h, up to 30 h)
Fluorescence anisotropy read in an LJL Acquest fluorescence reader.
• Ki=dissociation constant for inhibitor binding • Kf=dissociation constant for fluorescent ligand binding
The fluorescent ligand is the following compound:
which is derived from 5-[2-(4-aminomethylphenyl)-5-pyridin-4-yl-1H-imidazol-4-yl]-2-chlorophenol and rhodamine green.

[2] = system: Normal human foreskin fibroblasts (HFF); assay: Methylene blue growth inhibition assay (Assay 2), HFF; assay type: cell-based; conditions: Fibroblast, 72 h, B-Raf wt, Ras wt, Assay 2, 3 days
Method: (§1) Methylene Blue Growth Inhibition Assay (Assay 2)
(§2) Normal human foreskin fibroblasts (HFF), human melanoma (A375P, SKMEL2, SKMEL3) colon carcinoma (Colo 205) were cultured in the following growth media: A375P, Colo 205, Roswell Park Memorial Institute (RPMI) 1640 (Life Technologies 22400-089) containing 10% fetal bovine serum (FBS); HFF, Dulbecco's modified Eagle Medium (DMEM) (Life Technologies 12320-032) containing 10% FBS; SKMEL2 and SKMEL3, Minimum Essential Medium (MEM, Life Technologies 11095-080) containing 1× non-essential amino acids (Life Technologies 11140-050) and 10% FBS. Cells were harvested using 0.25% trypsin/1 mM, EDTA, counted using a haemocytometer, and plated in […] of the appropriate media, at the following densities, in a 96-well tissue culture plate (Falcon 3075): […] and A375P, 5,000 cells/well; all other cell lines, 10,000 cells/well. The next day, compounds were diluted in RPMI containing 100 micrograms/ml gentamicin, at twice the final required concentration, from 10 mM stock solutions in dimethyl sulphoxide (DMSO). One hundred microliters per well of these dilutions were added to the 100 microliters of media currently on the cell plates. RPMI containing 0.6% DMSO was added to control wells. […] Optical density at 620 nm was measured on a microplate reader. Percent inhibition of cell growth was calculated relative to vehicle treated control wells. […]

[3] = system: human colon carcinoma (Colo 201) cells; assay: XTT 72 hr growth inhibition (Assay 3), Colo201; assay type: cell-based; conditions: Colorectal cancer, B-Raf ND, Ras ND, Assay 3, 72 hr
Method: XTT 72 hr Growth Inhibition Protocol for Mammalian Cultured Cells (Assay 3)
Human diploid foreskin fibroblasts (HFF) or human colon carcinoma (Colo 201) cells were grown in Dulbecco's modified Eagle's medium (DMEM) (Invitrogen/Life Technologies) containing 10% fetal bovine serum (FBS) and the antibiotics penicillin (100 Units/ml) and streotomycin (100 micrograms/ml) (Invitrogen/Life Technologies). Growth was at 37° C. in humidified 5% CO2 incubators in 75 cm^2 plastic flasks. Cells were harvested using 0.25% trypsin/1 mM ethylenediaminetetraacetic acid (EDTA), resuspended in growth medium, and counted using a hemocytometer. Flat-bottomed 96-well plates were seeded with 2×10^3 cells/well in a volume of 200 ul from trypsinized exponentially growing cultures. To “blank” wells, growth medium was added with no additions. Cells were incubated overnight to permit attachment.
Next day, medium from wells that contained cells was replaced with 180 microliters of fresh medium. Appropriate dilutions of test compounds were added to the wells from stock soloutions of compound dissolved in dimethyl sulfoxide (DMSO); final DMSO concentration in all wells was 0.2%. […] Absorbance at 450 nm was then determined using a 96-well UV plate reader (Molecular Devices). Under these conditions, absorbance of untreated control cells at 450 nm was at least 1.0 optical density unit/ml. […]

[4] = system: colon carcinoma (Colo 205); assay: Methylene blue growth inhibition assay (Assay 2), Colo205; assay type: cell-based; conditions: Homo sapiens, COLO 205, 72 h; Colorectal cancer; B-Raf V599E, Ras wt; Assay 2, 3 days
Method: as §1, §2

[5] = system: human melanoma A375P; assay: Methylene blue growth inhibition assay (Assay 2), A375P; assay type: cell-based; conditions: 72 h, B-Raf V599E, Ras wt, Assay 2, 3 days
Method: as §1, §2

[6] = system: human melanoma SKMEL3; assay: Methylene blue growth inhibition assay (Assay 2), SKMEL3; assay type: cell-based; conditions: SK-MEL3, 72 h, B-Raf V599E, Ras wt, Assay 2, 3 days
Method: as §1, §2

[7] = system: human melanoma SKMEL2; assay: Methylene blue growth inhibition assay (Assay 2), SKMEL2; assay type: cell-based; conditions: SK-MEL-2, 72 h, B-Raf wt, [Q61R]N-Ras, Assay 2, 3 days
Method: as §1, §2

Sequence of B-Raf (P15056 whole entry): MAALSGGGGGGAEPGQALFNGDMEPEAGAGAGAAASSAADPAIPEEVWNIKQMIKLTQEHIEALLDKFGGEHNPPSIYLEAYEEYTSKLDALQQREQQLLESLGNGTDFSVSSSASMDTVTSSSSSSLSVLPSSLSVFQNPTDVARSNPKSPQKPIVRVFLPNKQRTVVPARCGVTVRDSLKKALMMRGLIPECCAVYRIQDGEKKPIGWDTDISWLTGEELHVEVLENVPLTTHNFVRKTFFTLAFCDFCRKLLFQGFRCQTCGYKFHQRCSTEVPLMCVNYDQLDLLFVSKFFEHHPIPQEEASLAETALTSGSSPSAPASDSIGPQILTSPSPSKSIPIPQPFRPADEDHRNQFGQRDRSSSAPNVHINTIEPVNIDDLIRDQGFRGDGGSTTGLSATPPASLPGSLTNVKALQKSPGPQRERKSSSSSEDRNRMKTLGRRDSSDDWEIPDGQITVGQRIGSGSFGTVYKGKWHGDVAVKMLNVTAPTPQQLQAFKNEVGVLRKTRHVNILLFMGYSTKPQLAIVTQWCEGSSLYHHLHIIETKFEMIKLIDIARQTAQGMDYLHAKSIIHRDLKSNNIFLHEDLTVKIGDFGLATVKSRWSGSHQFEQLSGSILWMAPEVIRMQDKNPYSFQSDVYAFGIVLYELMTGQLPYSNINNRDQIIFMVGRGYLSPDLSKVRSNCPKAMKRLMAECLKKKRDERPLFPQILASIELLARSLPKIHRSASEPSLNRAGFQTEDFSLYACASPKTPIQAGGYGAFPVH

Compound `O=C(c1cc(-c2ccc3c(c2)CCC3=NO)c(-c2ccncc2)o1)N1CCC(N2CCCC2)CC1` [Example 20, 5-{2-Pyridin-4-yl-5-[1-(4-pyrrolidin-1-yl-piperidin-1-yl)-methanoyl}-furan-3-yl}-indan-1-one oxime] has a Kd [1] of 0.4 nM, an IC50 [2] of over 30000 nM and an IC50 [3] of 800 nM. For the same compound, the IC50 [4] was 320 nM, the IC50 [5] was 310 nM and the IC50 [6] was 460 nM. It also gave an IC50 [7] of 1900 nM.
